According to ChEMBL document CHEMBL5247581, “Design, synthesis and biological evaluation of new quinazolinone-benzopyran-indole hybrid compounds promoting osteogenesis through BMP2 upregulation” (Eur J Med Chem, 2022):
The source made the active and inactive calls. The rule behind the calls is not given here.

How the values were obtained:
Calvarial osteoblast [1] = assay: Induction of osteogenesis in mouse Osteoblast cells assessed as ALP activity at 0.001 to 100 uM measured for 24 to 48 hrs; type: functional; details: dose 0.001-100 µM, time 24-48 hrs
Calvarial osteoblast [2] = assay: Induction of osteogenesis in mouse Osteoblast cells assessed as ALP activity at 1 to 1000 pM measured for 24 to 48 hrs; type: functional, cell-based; details: dose 1-1000 pM, time 24-48 hrs
Calvarial osteoblast [3] = assay: Induction of osteogenesis in mouse Osteoblast cells assessed as ALP activity at 10 nM measured for 24 to 48 hrs; type: functional, cell-based; details: time 24-48 hrs
Calvarial osteoblast [4] = assay: Induction of osteogenesis in mouse Osteoblast cells assessed as ALP activity at 100 to 1000000 pM measured for 24 to 48 hrs; type: functional, cell-based; details: dose 100-1e+06 pM, time 24-48 hrs
Calvarial osteoblast [5] = assay: Cytotoxicity against mouse Osteoblast cells assessed as reduction in cell viability at 100 uM measured for 24 to 48 hrs by MTT assay; type: toxicity, cell-based; details: time 24-48 hrs
Calvarial osteoblast [6] = assay: Induction of osteogenesis in mouse Osteoblast cells assessed as ALP activity at 100 pM measured for 48 hrs; type: functional, cell-based
Calvarial osteoblast [7] = assay: Induction of osteoblast differentiation in mouse calvarial osteoblasts cells assessed as ALP activity at 1 to 10000 pM measured for 7 days; type: functional, cell-based; details: dose 1-10000 pM, time 7.0 day
Calvarial osteoblast [8] = assay: Induction of osteogenesis in mouse Osteoblast cells assessed as ALP activity at 0.001 to 100 uM measured for 24 hrs; type: functional, cell-based; details: dose 0.001-100 µM
Calvarial osteoblast [9] = assay: Induction of osteogenesis in mouse Osteoblast cells assessed as ALP activity at 0.001 to 100 uM measured for 48 hrs; type: functional, cell-based; details: dose 0.001-100 µM
Calvarial osteoblast [10] = assay: Cytotoxicity against mouse Osteoblast cells assessed as reduction in cell viability at 0.000001 to 1 uM measured for 24 to 48 hrs by MTT assay; type: toxicity, cell-based; details: dose lower 1e-06 µM, time lower 24 hrs, dose upper 1 µM, time upper 48 hrs
Mus musculus [11] = assay: Induction of osteogenesis in BALB/c mouse assessed as fold increase in Col1a1 gene expression at 5 mg/kg, ip by qRT-PCR analysis; type: functional
Calvarial osteoblast [12] = assay: Induction of osteogenesis in mouse Osteoblast cells assessed as fold increase in mRNA expression at 1 to 10000 pM by qRT-PCR analysis; type: functional; details: dose 1-10000 pM
[13] = Upregulation of BMP2 expression in mouse Osteoblast cells assessed as fold increase in phosphorylated p38 level measured at 24 hrs by ELISA analysis; type: functional, Calvarial osteoblast
Calvarial osteoblast [14] = assay: Induction of osteogenesis in mouse Osteoblast cells assessed as fold increase in BMP2 gene expression at 100 pM by qRT-PCR analysis; type: functional
Calvarial osteoblast [15] = assay: Induction of osteoblast differentiation in mouse Osteoblast cells assessed as fold increase in RUNX2 expression at 100 pM by qRT-PCR analysis; type: functional
Mus musculus [16] = assay: Induction of osteogenesis in BALB/c mouse assessed as fold increase in RUNX2 gene expression at 5 mg/kg, ip by qRT-PCR analysis; type: functional
Mus musculus [17] = assay: Induction of osteogenesis in BALB/c mouse assessed as fold increase in BMP2 gene expression at 5 mg/kg, ip by qRT-PCR analysis; type: functional
Mus musculus [18] = assay: Induction of bone formation in BALB/c mouse model assessed as morphological architecture at 1 mg/kg by histopathological analysis; type: functional, organism-based
Mus musculus [19] = assay: Induction of osteogenesis in BALB/c mouse assessed as fold increase in BGLAP gene expression at 5 mg/kg, ip by qRT-PCR analysis; type: functional
Mus musculus [20] = assay: Induction of osteogenesis in BALB/c mouse assessed as increase in Col1a1 gene expression at 5 mg/kg, ip by qRT-PCR analysis; type: functional, organism-based
Calvarial osteoblast [21] = assay: Induction of osteogenesis in mouse Osteoblast cells assessed as fold increase in BGLAP expression at 10 nM by qRT-PCR analysis; type: functional
Calvarial osteoblast [22] = assay: Induction of osteogenesis in mouse Osteoblast cells assessed as fold increase in ALP expression at 100 pM by qRT-PCR analysis; type: functional
Mus musculus [23] = assay: Induction of bone formation in BALB/c mouse model assessed as increase in intercortical distance at 1 mg/kg by histopathological analysis; type: functional, organism-based
Mus musculus [24] = assay: Induction of bone formation in BALB/c mouse model assessed as mineralizing surface per bone surface at 1 to 5 mg/kg by double labelling based analysis; type: functional, organism-based; details: dose 1-5 mg/kg
Calvarial osteoblast [25] = assay: Induction of osteoblast differentiation in mouse Osteoblast cells assessed as fold increase in BMP2 expression at 100 pM by qRT-PCR analysis; type: functional
[26] = Induction of osteoblast mineralization in mouse Bone marrow cells assessed as increase in mineralized nodule formation at 10 nM replaced with media every 48 hrs for 21 days by Alizarin Red staining-based microscopic analysis; type: functional, Bone marrow cell; details: time 21 day
Mus musculus [27] = assay: Induction of bone formation in BALB/c mouse model assessed as calvarial bone formation at 1 to 5 mg/kg by double labelling based analysis; type: functional, organism-based; details: dose 1-5 mg/kg
Mus musculus [28] = assay: Induction of bone formation in BALB/c mouse model assessed as mineral apposition rate at 1 to 5 mg/kg by double labelling based analysis; type: functional, organism-based; details: dose 1-5 mg/kg
Mus musculus [29] = assay: Induction of osteogenesis in BALB/c mouse assessed as increase in BMP2 gene expression at 5 mg/kg, ip by qRT-PCR analysis; type: functional, organism-based
[30] = Induction of osteoblast mineralization in mouse Bone marrow cells assessed as increase in mineralized nodule formation at 100 pM replaced with media every 48 hrs for 21 days by Alizarin Red staining-based microscopic analysis; type: functional, Bone marrow cell; details: time 21 day
Calvarial osteoblast [31] = assay: Induction of osteogenesis in mouse Osteoblast cells assessed as fold increase in BGLAP expression at 1 to 100 pM by qRT-PCR analysis; type: functional; details: dose 1-100 pM
Calvarial osteoblast [32] = assay: Induction of osteogenesis in mouse Osteoblast cells assessed as ALP activity at 0.001 to 1 uM measured for 48 hrs; type: functional, cell-based; details: dose 0.001-1 µM
Calvarial osteoblast [33] = assay: Induction of osteogenesis in mouse Osteoblast cells assessed as fold increase in RUNX2 gene expression at 1 pM by qRT-PCR analysis; type: functional
Calvarial osteoblast [34] = assay: Induction of osteogenesis in mouse Osteoblast cells assessed as ALP activity at 100 pM measured for 24 to 48 hrs; type: functional, cell-based; details: time 24-48 hrs
Mus musculus [35] = assay: Induction of osteogenesis in BALB/c mouse assessed as increase in RUNX2 gene expression at 5 mg/kg, ip by qRT-PCR analysis; type: functional, organism-based
Mus musculus [36] = assay: Induction of osteogenesis in BALB/c mouse assessed as increase in BGLAP gene expression at 5 mg/kg, ip by qRT-PCR analysis; type: functional, organism-based
Mus musculus [37] = assay: Induction of bone formation in BALB/c mouse model assessed as bone formation rate/bone surface at 1 to 5 mg/kg by double labelling based analysis; type: functional, organism-based; details: dose 1-5 mg/kg

SMILES: COc1ccc2[nH]c(C)c(C3C(C#N)=C(N)Oc4c3cc(-c3nc5ccccc5c(=O)[nH]3)cc4C(C)(C)C)c2c1 (configuration not stated)
- Activity (Calvarial osteoblast [1]): inactive

SMILES: CCn1c(-c2cc(C)c3c(c2)C(c2c(C)n(C)c4ccccc24)C(C#N)=C(N)O3)nc2ccccc2c1=O (configuration not stated)
- Activity (Calvarial osteoblast [1]): 14%

SMILES: CCn1c(C)nc2ccccc2c1=O
- Activity (Calvarial osteoblast [2]): inactive
- Activity (Calvarial osteoblast [1]): 1%
- Activity (Calvarial osteoblast [3]): inactive
- Activity (Calvarial osteoblast [4]): inactive

SMILES: Cc1[nH]c2ccc(Cl)cc2c1C1C(C#N)=C(N)Oc2c(C(C)C)cc(-c3nc4ccccc4c(=O)n3C)cc21 (configuration not stated)
- Activity (Calvarial osteoblast [1]): 5%

SMILES: Cc1cc2ccccc2[nH]1
- Activity (Calvarial osteoblast [2]): inactive
- Activity (Calvarial osteoblast [1]): inactive
- Activity (Calvarial osteoblast [3]): inactive
- Activity (Calvarial osteoblast [4]): inactive

SMILES: Cc1cc(-c2nc3ccccc3c(=O)n2C)cc2c1OC(N)=C(C#N)C2c1c(C)[nH]c2ccc(Cl)cc12 (configuration not stated)
- Activity (Calvarial osteoblast [5]): Toxic
- Activity (Calvarial osteoblast [6]): Active
- Activity (Calvarial osteoblast [7]): inactive
- Activity (Calvarial osteoblast [8]): inactive
- Activity (Calvarial osteoblast [9]): Active
- Activity (Calvarial osteoblast [10]): Non-Toxic
- Activity (Calvarial osteoblast [1]): 25%

SMILES: N#CC1=Cc2ccccc2OC1N (configuration not stated)
- Activity (Calvarial osteoblast [1]): 18%

SMILES: Cc1[nH]c2ccc(Cl)cc2c1C1C(C#N)=C(N)Oc2c1cc(-c1nc3ccccc3c(=O)n1C)cc2C(C)(C)C (configuration not stated)
- Activity (Calvarial osteoblast [1]): 7%

SMILES: Cc1[nH]c2ccccc2c1C1C(C#N)=C(N)Oc2ccccc21 (configuration not stated)
- Activity (Calvarial osteoblast [2]): inactive
- Activity (Calvarial osteoblast [1]): inactive
- Activity (Calvarial osteoblast [3]): inactive

SMILES: CCc1cc(-c2nc3ccccc3c(=O)n2C)cc2c1OC(N)=C(C#N)C2c1c(C)[nH]c2ccc(OC)cc12 (configuration not stated)
- Activity (Calvarial osteoblast [1]): 2%

SMILES: CCc1cc(-c2nc3ccccc3c(=O)n2C)cc2c1OC(N)=C(C#N)C2c1c(C)[nH]c2ccc(Cl)cc12 (configuration not stated)
- Activity (Calvarial osteoblast [1]): 1%

SMILES: Cc1[nH]c2ccccc2c1C1C(C#N)=C(N)Oc2c1cc(-c1nc3ccccc3c(=O)[nH]1)cc2C(C)(C)C (configuration not stated)
- Activity (Calvarial osteoblast [1]): inactive

SMILES: CCn1c(-c2cc(C)c3c(c2)C(c2c(C)[nH]c4ccccc24)C(C#N)=C(N)O3)nc2ccccc2c1=O (configuration not stated)
- fold change (FC) (Mus musculus [11]): 10
- Activity (Calvarial osteoblast [5]): Toxic
- fold change (FC) (Calvarial osteoblast [12]): 2
- Activity (Calvarial osteoblast [7]): Active
- fold change (FC) [13]: 1.5
- fold change (FC) (Calvarial osteoblast [14]): 3
- fold change (FC) (Calvarial osteoblast [15]): 2.7
- Activity (Calvarial osteoblast [8]): inactive
- fold change (FC) (Mus musculus [16]): 11
- fold change (FC) (Mus musculus [17]): 6
- Activity (Mus musculus [18]): Active
- fold change (FC) (Mus musculus [19]): 7
- Activity (Calvarial osteoblast [9]): Active
- Activity (Mus musculus [20]): Active
- fold change (FC) (Calvarial osteoblast [21]): 4
- fold change (FC) (Calvarial osteoblast [22]): 3
- Activity (Calvarial osteoblast [10]): Non-Toxic
- Activity (Mus musculus [23]): Active
- Activity (Mus musculus [24]): Active
- fold change (FC) (Calvarial osteoblast [25]): 2.3
- Activity [26]: 50%
- Activity (Calvarial osteoblast [1]): 50%
- Activity (Mus musculus [27]): Active
- Activity (Mus musculus [28]): Active
- Activity (Mus musculus [29]): Active
- Activity [30]: 30%
- fold change (FC) (Calvarial osteoblast [31]): 2
- Activity (Calvarial osteoblast [32]): Active
- fold change (FC) (Calvarial osteoblast [33]): 2
- Activity (Calvarial osteoblast [34]): Active
- Activity (Mus musculus [35]): Active
- Activity (Mus musculus [36]): Active
- Activity (Mus musculus [37]): Active

SMILES: CCc1cc(-c2nc3ccccc3c(=O)n2C)cc2c1OC(N)=C(C#N)C2c1c(C)[nH]c2ccccc12 (configuration not stated)
- Activity (Calvarial osteoblast [1]): 7%

SMILES: CCn1c(-c2cc3c(c(C(C)(C)C)c2)OC(N)=C(C#N)C3c2c(C)[nH]c3ccccc23)nc2ccccc2c1=O (configuration not stated)
- Activity (Calvarial osteoblast [1]): 9%

SMILES: CCCc1cc(-c2nc3ccccc3c(=O)n2C)cc2c1OC(N)=C(C#N)C2c1c(C)[nH]c2ccccc12 (configuration not stated)
- Activity (Calvarial osteoblast [1]): inactive
